Data published in patent US20210205638A1, “PARATHYROID HORMONE AND REGENERATION OF DEGENERATIVE DISCS DISEASE” (THE JOHNS HOPKINS UNIVERSITY, priority 2017, published 2021).

Assays:
[1] = test system: NP cells; assay: pCREB immunostaining of IVD sections at time points after PTH treatment; type: in vivo, mouse
Experimental: For immunocytochemical staining, we incubated GFP labeled NP cells co-stained with primary antibody to rabbit PTH1R PRB-635P (Covance, 1:100) for 1 h and subsequently stained with secondary antibodies conjugated with fluorescence at room temperature. At the time of euthanasia, we dissected and fixed the lumbar vertebral spine in 10% buffered formalin for 48 h, decalcified them in 10% EDTA (pH 7.4) for 14-21 days and embedded them in paraffin or optimal cutting temperature (OCT) compound (Sakura Finetek). Fourmicrometer-thick coronal-oriented sections of the L1-L6 spine were processed for safranin O and fast green staining. […] For immunofluorescent assay, the slides were incubated with secondary antibodies conjugated with fluorescence at room temperature for 1 h while avoiding light. […]
Quantitative histomorphometric analysis was conducted in a blinded fashion with Image-Pro Plus Software version 6.0 (Media Cybernetics Inc). […] Five randomly selected sections per mice in each group at L3-L4 level were chosen for quantitative histomorphometric analysis. […] The percentage area of CCN2 and ACAN positive staining was calculated by measuring the positive area to the whole area of the L3-L4 in each group.

[2] = test system: NP cells; assay: Western blot of pCREB in cultured NP cells; type: cell-based, mouse
Experimental: (§1) Green fluorescent protein (GFP) labeled NP cells of notochordal origin were isolated from 15-day old Noto^Cre/+::ROSA26-lacZ^flox/flox male mice as previously described. The NP cells from 15-day old PTH1R^+/+ and PTH1R^−/−, IFT88^+/+ and IFT88^−/− male mice. Briefly, the cells were isolated from the NP region of IVDs in the spinal column from mid thoracic to lower lumbar region and digested initially with TrypLE Express (Gibco) for 30 minutes on shaker, followed by 0.25 mg/ml Collagense-P (Roche) for another […] at 37° C. The digested cells were washed twice with PBS, and cultured in α-MEM (Gibco) supplemented with 10% fetal calf serum (Atlanta Biologicals), and 1% penicillin—streptomycin (Mediatech) to 80-90% confluence at 37° C., 5% CO2 and 5% O2.
(§2) Western blot analyses were conducted on the protein lysates from in vitro cultured NP cells or NP tissues from mice at specific time points after PTH (1-34) treatment and human at different ages with lumbar disc degeneration. The protein extract was centrifuged, the concentration of supernatant evaluated by DC protein assay (Bio-Rad Laboratories), and then separated by SDS-PAGE and blotted on a polyvinylidene fluoride membrane (Bio-Rad Laboratories). Following incubation in specific antibodies, we detected proteins using an enhanced chemiluminescence kit (Amersham Biosciences). […]

[3] = test system: NP tissues; assay: Western blot of pSmad2 in NP tissue of aged mice; type: in vivo, mouse; settings: NP tissues of 18-month-old mice
Experimental: (§3) Western blot analyses were conducted on the protein lysates from in vitro cultured NP cells or NP tissues from mice at specific time points after PTH (1-34) treatment and human at different ages with lumbar disc degeneration. The protein extract was centrifuged, the concentration of supernatant evaluated by DC protein assay (Bio-Rad Laboratories), and then separated by SDS-PAGE and blotted on a polyvinylidene fluoride membrane (Bio-Rad Laboratories). Following incubation in specific antibodies, we detected proteins using an enhanced chemiluminescence kit (Amersham Biosciences). We used specific antibodies recognizing rabbit CTGF (CCN2) (Abcam, 1:1000), Aggrecan (ACAN) (Abcan, 1:1000), p-Smad2 (Cell Signaling Technology Inc., 1:1000), Smad2 (Cell Signaling Technology Inc., 1:1000), GAPDH (Cell Signaling Technology Inc., 1:1000), CREB (Abcam, 1:2500), pCREB (Abcam, 1:2500), PTH1R PRB-635P (Covance, 1:100), PTH1R PRB-640P (Covance, 1:500) and goat integrin β6 (Santa Cruz, 1:500) to examine the protein concentrations in the lysates. Co-immunoprecipitation analyses were conducted on the nuclear and cytoplasmic protein extraction using NE-PER Nuclear and Cytoplasmic Extraction Kit (Pierce Thermo Scientific, 78833) from in vitro cultured NP cells treated with PTH (1-34) or vehicle.

[4] = test system: αvβ integrins; assay: Immunostaining of αvβ integrins in IVD sections of aged mice; type: in vivo, mouse; settings: 18-month old mice; only αvβ6 among αvβ3, αvβ5, αvβ6, β8
Experimental: For immunocytochemical staining, we incubated GFP labeled NP cells co-stained with primary antibody to rabbit PTH1R PRB-635P (Covance, 1:100) for 1 h and subsequently stained with secondary antibodies conjugated with fluorescence at room temperature. At the time of euthanasia, we dissected and fixed the lumbar vertebral spine in 10% buffered formalin for 48 h, decalcified them in 10% EDTA (pH 7.4) for 14-21 days and embedded them in paraffin or optimal cutting temperature (OCT) compound (Sakura Finetek). Fourmicrometer-thick coronal-oriented sections of the L1-L6 spine were processed for safranin O and fast green staining. Sections for immunostaining was performed using a standard protocol and incubated with primary antibodies to rabbit ACAN (Abcam, 1:100), CCN2 (Abcam, 1:100), integrin β8 (Abcam, 1:200), pCREB (Abcam, 1:100) and PTH1R PRB-635P (Covance, 1:100), mouse pSmad2/3 (Santa Cruz, 1:100), integrin αvβ6 (Millipore, 1:100), integrin αvβ3 (Bioss, 1:100,), integrin αvβ5 (Bioss, 1:100) at 4° C. overnight. For immunohistochemical staining, a horse radish peroxidase-streptavidin detection system (Dako) was subsequently used to detect the immunoactivity, followed by counterstaining with hematoxylin (Sigma-Aldrich). For immunofluorescent assay, the slides were incubated with secondary antibodies conjugated with fluorescence at room temperature for 1 h while avoiding light. […]

[5] = test system: integrin β6; assay: Western blot of integrin β6 in NP cells at time points after PTH; type: cell-based, mouse; settings: PTH1-34 100 nM, time dependent manner
Experimental: as §3

[6] = test system: NP tissue; assay: iPTH in PTH1R KO mice: Western blot of NP tissue; type: in vivo, mouse
Experimental: (§4) The 11 month-old PTH1R^+/+ and PTH1R^−/− male mice were randomized into four groups: PTH1R^+/++PTH (1-34), PTH1R^+/++Vehicle, PTH1R^−/−+PTH (1-34) and PTH1R^−/−+Vehicle groups (n=8 per group). The 11 month-olds IFT88^+/+ and IFT88^−/− male mice were randomized into four groups: IFT88^+/++PTH (1-34), IFT88^+/++Vehicle, IFT88^−/−+PTH (1-34) and IFT88^−/−+Vehicle groups (n=8 per group). Mice were subcutaneously injected with either PTH (1-34) or vehicle (1 mM acetic acid in phosphate buffered saline (PBS) with equivalent volume of PTH) daily, 5 days per week, and all mice were sacrificed 4 weeks after treatment with PTH (1-34)/vehicle.
as §3

[7] = test system: NP cells; assay: iPTH in PTH1R KO and wild-type mice: qRT-PCR of CCN2 and ACAN; type: in vivo, mouse
Experimental: as §4
After protein extraction, specimen from the same group of mice were prepared for RNA extraction using TRIzol reagent (Invitogen) according to the manufacturer's instruction. The purity of RNA was tested by measuring the absorbance at 260 and 280 nm. For qRT-PCR, two micrograms of RNA was reverse transcribed into cDNA using the SuperScript firststrand synthesis system (Invitrogen) and analyzed with SYBR Green-Master Mix (Qiagen) in the thermal cycler with two sets of primers specific for each target gene. Relative expression was calculated for each gene by the 2^−ΔΔCT method, with GAPDH for normalization.

[8] = test system: NP cells; assay: Western blot of pCREB in NP cells of IFT88-/- or IFT88+/+ mice; type: cell-based, mouse
Experimental: as §1, §2

## CC[C@H](C)[C@H](NC(=O)[C@H](CCC(=O)O)NC(=O)[C@H](CO)NC(=O)[C@@H](NC(=O)[C@@H](N)CO)C(C)C)C(=O)N[C@@H](CCC(N)=O)C(=O)N[C@@H](CC(C)C)C(=O)N[C@@H](CCSC)C(=O)N[C@@H](Cc1cnc[nH]1)C(=O)N[C@@H](CC(N)=O)C(=O)N[C@@H](CC(C)C)C(=O)NCC(=O)N[C@@H](CCCCN)C(=O)N[C@@H](Cc1cnc[nH]1)C(=O)N[C@@H](CC(C)C)C(=O)N[C@@H](CC(N)=O)C(=O)N[C@@H](CO)C(=O)N[C@@H](CCSC)C(=O)N[C@@H](CCC(=O)O)C(=O)N[C@@H](CCCN=C(N)N)C(=O)N[C@H](C(=O)N[C@@H](CCC(=O)O)C(=O)N[C@@H](Cc1c[nH]c2ccccc12)C(=O)N[C@@H](CC(C)C)C(=O)N[C@@H](CCCN=C(N)N)C(=O)N[C@@H](CCCCN)C(=O)N[C@@H](CCCCN)C(=O)N[C@@H](CC(C)C)C(=O)N[C@@H](CCC(N)=O)C(=O)N[C@@H](CC(=O)O)C(=O)N[C@H](C(=O)N[C@@H](Cc1cnc[nH]1)C(=O)N[C@@H](CC(N)=O)C(=O)N[C@@H](Cc1ccccc1)C(=O)O)C(C)C)C(C)C [PTH (1-34), teriparatide]
[1]; after treatment
  time at which number of pCREB+ cells in NP area peaked: 1 hour
[1]; at 30 minutes after treatment
  number of pCREB+ cells in NP area: increased
[2]; at 30 min
  phosphorylation of CREB (Western blot): induced phosphorylation of CREB
[2]; knockdown of pallidin with siRNA
  PTH-enhanced phosphorylation of CREB: blocked
[3]
  pSmad2 (Western blot): increased
[4]
  level of αvβ6 integrin: significantly increased
[5]
  protein level of β6 integrin: significantly stimulated
[6]
  PTH induced increase in level of ACAN: diminished
  PTH induced increase in level of CCN2: diminished
  PTH induced increase in level of pSmad2: diminished
[7]; NP cells of wild-type mice
  mRNA expression of ACAN: significantly increased
  mRNA expression of CCN2: significantly increased
[7]; PTH1R KO mice
  PTH increase of mRNA expression of ACAN: blunted
  PTH increase of mRNA expression of CCN2: blunted
[8]; IFT88-/- NP cells (disruption of primary cilia)
  levels of CREB phosphorylation by PTH: significantly reduced
[8]; NP cells of wild-type mice
  phosphorylation of CREB (Western blot): significantly stimulated
